Peptide text beside a SMILES is read from it. * marks the point of attachment. Dansyl = CN(C)c1cccc2c(S(=O)(=O)*)cccc12
Test system: receptor labeled by the radioiodinated analogue of 1 (4, [125I]-YLFQPQRF-NH2); neuropeptide FF receptor
Experiment: Competitive radioligand binding against 4 ([125I]Y8F-amide)
Conditions: mixture-based positional scanning; difference from averaged radioligand displacement of whole library (0); about 80 a.u. = 10-fold change in Ki
Text: Additionally, three-dimensional (3-D) molecular models of the known smaller-size neuropeptide FF antagonists 3 and 3a were constructed and their low-energy conformations were obtained in the AMBER force-field [Weiner, et al., J. Comput. Chem. 1986, 7, […].] by molecular dynamics calculations involving simulated annealing. A semi-empirical quantum chemical method with the PM3 parameterization [Stewart, J. Comput. Chem. 1989, 10, 209-220.] was used for the final geometry optimization. […] At least one of the rings in domain B is aromatic. No similarity between 3 and 3a outside these domains were apparent; therefore, the simultaneous presence of A and B domains in the structure of neuropeptide FF (1) antagonists is critical to the invention. Apparently, structural subunits (domain C) outside domains A and B should function in a cooperative manner in directing the pharmacophores into proper geometric positions when improved binding to the cognate receptor is to be obtained, which is associated with the improvement of the desired pharmacological effect. An approach involving mixture-based synthetic combinatorial libraries and positional scanning [(a) Houghten, et al., J. Med Chem. 1999, 42, 3743-3778.] was adopted in the search for preferred structural motifs in domain C that assist in achieving this objective in this invention. To allow for the use of 3 as a reference in this process, the guadinino group (A) was incorporated as part of an L-2-amino-5-{[amino(imino)methyl]amino}pentanoyl (arginyl, R, Arg) residue and 5-dimethylamino-1-naphthalenesulphonyl (dansyl) was chosen to form B (However, it must be emphasized that both R and dansyl are replaceable with moieties that bestow A and B domain attributes described in the invention).
Upon screening for residues to replace the glutamine of 3, serine (S) was the only building block in this position that increased the displacement of 4 in the radioligand-binding assay. Therefore, motifs present in dansyl-Gly-Ser-Arg-NH2, dansyl-Gly-Gln-Arg-NH2, dansyl-Gln-Ser-Arg-NH2, and dansyl-Gln-Gln-Arg-NH2 were chosen based on their affinity to the cognate receptor for further consideration as primary templates when designing the domain C of the compounds described in the invention herein. […]

C[C@@H](O)[C@H](NC(=O)[C@H](CC(=O)O)NS(=O)(=O)c1cccc2c(N(C)C)cccc12)C(=O)N[C@@H](CCCNC(=N)N)C(N)=O [Dansyl-DTR-amide] (Dansyl-Asp-Thr-Arg-NH2)
Relative Binding Index (RBI): 0 a.u.

CC(C)[C@H](NC(=O)[C@H](CC(=O)O)NS(=O)(=O)c1cccc2c(N(C)C)cccc12)C(=O)N[C@@H](CCCNC(=N)N)C(N)=O [Dansyl-DVR-amide] (Dansyl-Asp-Val-Arg-NH2)
Relative Binding Index (RBI): −10 a.u.

CN(C)c1cccc2c(S(=O)(=O)N[C@@H](CC(=O)O)C(=O)N[C@@H](Cc3c[nH]c4ccccc34)C(=O)N[C@@H](CCCNC(=N)N)C(N)=O)cccc12 [Dansyl-DWR-amide] (Dansyl-Asp-Trp-Arg-NH2)
Relative Binding Index (RBI): 3 a.u.

CN(C)c1cccc2c(S(=O)(=O)N[C@@H](CC(=O)O)C(=O)N[C@@H](Cc3ccc(O)cc3)C(=O)N[C@@H](CCCNC(=N)N)C(N)=O)cccc12 [Dansyl-DYR-amide] (Dansyl-Asp-Tyr-Arg-NH2)
Relative Binding Index (RBI): −7 a.u.

C[C@H](NC(=O)[C@H](CCC(=O)O)NS(=O)(=O)c1cccc2c(N(C)C)cccc12)C(=O)N[C@@H](CCCNC(=N)N)C(N)=O [Dansyl-EAR-amide] (Dansyl-Glu-Ala-Arg-NH2)
Relative Binding Index (RBI): −32 a.u.

CN(C)c1cccc2c(S(=O)(=O)N[C@@H](CCC(=O)O)C(=O)N[C@@H](CC(=O)O)C(=O)N[C@@H](CCCNC(=N)N)C(N)=O)cccc12 [Dansyl-EDR-amide] (Dansyl-Glu-Asp-Arg-NH2)
Relative Binding Index (RBI): −1 a.u.

CN(C)c1cccc2c(S(=O)(=O)N[C@@H](CCC(=O)O)C(=O)N[C@@H](CCC(=O)O)C(=O)N[C@@H](CCCNC(=N)N)C(N)=O)cccc12 [Dansyl-EER-amide] (Dansyl-Glu-Glu-Arg-NH2)
Relative Binding Index (RBI): 17 a.u.

CN(C)c1cccc2c(S(=O)(=O)N[C@@H](CCC(=O)O)C(=O)N[C@@H](Cc3ccccc3)C(=O)N[C@@H](CCCNC(=N)N)C(N)=O)cccc12 [Dansyl-EFR-amide] (Dansyl-Glu-Phe-Arg-NH2)
Relative Binding Index (RBI): 15 a.u.

CN(C)c1cccc2c(S(=O)(=O)N[C@@H](CCC(=O)O)C(=O)NCC(=O)N[C@@H](CCCNC(=N)N)C(N)=O)cccc12 [Dansyl-EGR-amide] (Dansyl-Glu-Gly-Arg-NH2)
Relative Binding Index (RBI): 22 a.u.

CN(C)c1cccc2c(S(=O)(=O)N[C@@H](CCC(=O)O)C(=O)N[C@@H](Cc3cnc[nH]3)C(=O)N[C@@H](CCCNC(=N)N)C(N)=O)cccc12 [Dansyl-EHR-amide] (Dansyl-Glu-His-Arg-NH2)
Relative Binding Index (RBI): 11 a.u.

CC[C@H](C)[C@H](NC(=O)[C@H](CCC(=O)O)NS(=O)(=O)c1cccc2c(N(C)C)cccc12)C(=O)N[C@@H](CCCNC(=N)N)C(N)=O [Dansyl-EIR-amide] (Dansyl-Glu-Ile-Arg-NH2)
Relative Binding Index (RBI): 23 a.u.

CN(C)c1cccc2c(S(=O)(=O)N[C@@H](CCC(=O)O)C(=O)N[C@@H](CCCCN)C(=O)N[C@@H](CCCNC(=N)N)C(N)=O)cccc12 [Dansyl-EKR-amide] (Dansyl-Glu-Lys-Arg-NH2)
Relative Binding Index (RBI): 14 a.u.

CC(C)C[C@H](NC(=O)[C@H](CCC(=O)O)NS(=O)(=O)c1cccc2c(N(C)C)cccc12)C(=O)N[C@@H](CCCNC(=N)N)C(N)=O [Dansyl-ELR-amide] (Dansyl-Glu-Leu-Arg-NH2)
Relative Binding Index (RBI): 8 a.u.

CSCC[C@H](NC(=O)[C@H](CCC(=O)O)NS(=O)(=O)c1cccc2c(N(C)C)cccc12)C(=O)N[C@@H](CCCNC(=N)N)C(N)=O [Dansyl-EMR-amide] (Dansyl-Glu-Met-Arg-NH2)
Relative Binding Index (RBI): 17 a.u.

CN(C)c1cccc2c(S(=O)(=O)N[C@@H](CCC(=O)O)C(=O)N[C@@H](CC(N)=O)C(=O)N[C@@H](CCCNC(=N)N)C(N)=O)cccc12 [Dansyl-ENR-amide] (Dansyl-Glu-Asn-Arg-NH2)
Relative Binding Index (RBI): 18 a.u.

CN(C)c1cccc2c(S(=O)(=O)N[C@@H](CCC(=O)O)C(=O)N3CCC[C@H]3C(=O)N[C@@H](CCCNC(=N)N)C(N)=O)cccc12 [Dansyl-EPR-amide] (Dansyl-Glu-Pro-Arg-NH2)
Relative Binding Index (RBI): 20 a.u.

CN(C)c1cccc2c(S(=O)(=O)N[C@@H](CCC(=O)O)C(=O)N[C@@H](CCC(N)=O)C(=O)N[C@@H](CCCNC(=N)N)C(N)=O)cccc12 [Dansyl-EQR-amide] (Dansyl-Glu-Gln-Arg-NH2)
Relative Binding Index (RBI): 30 a.u.

CN(C)c1cccc2c(S(=O)(=O)N[C@@H](CCC(=O)O)C(=O)N[C@@H](CCCNC(=N)N)C(=O)N[C@@H](CCCNC(=N)N)C(N)=O)cccc12 [Dansyl-ERR-amide] (Dansyl-Glu-Arg-Arg-NH2)
Relative Binding Index (RBI): 15 a.u.

CN(C)c1cccc2c(S(=O)(=O)N[C@@H](CCC(=O)O)C(=O)N[C@@H](CO)C(=O)N[C@@H](CCCNC(=N)N)C(N)=O)cccc12 [Dansyl-ESR-amide] (Dansyl-Glu-Ser-Arg-NH2)
Relative Binding Index (RBI): 37 a.u.

CC(O)C(NC(=O)C(CCC(=O)O)NS(=O)(=O)c1cccc2c(N(C)C)cccc12)C(=O)NC(CCCNC(=N)N)C(N)=O (stereo not drawn) [Dansyl-ETR-amide] (Dansyl-Glu-Thr-Arg-NH2; configuration not given here)
Relative Binding Index (RBI): 22 a.u.

CC(C)[C@H](NC(=O)[C@H](CCC(=O)O)NS(=O)(=O)c1cccc2c(N(C)C)cccc12)C(=O)N[C@@H](CCCNC(=N)N)C(N)=O [Dansyl-EVR-amide] (Dansyl-Glu-Val-Arg-NH2)
Relative Binding Index (RBI): 12 a.u.

CN(C)c1cccc2c(S(=O)(=O)N[C@@H](CCC(=O)O)C(=O)N[C@@H](Cc3c[nH]c4ccccc34)C(=O)N[C@@H](CCCNC(=N)N)C(N)=O)cccc12 [Dansyl-EWR-amide] (Dansyl-Glu-Trp-Arg-NH2)
Relative Binding Index (RBI): 25 a.u.

CN(C)c1cccc2c(S(=O)(=O)N[C@@H](CCC(=O)O)C(=O)N[C@@H](Cc3ccc(O)cc3)C(=O)N[C@@H](CCCNC(=N)N)C(N)=O)cccc12 [Dansyl-EYR-amide] (Dansyl-Glu-Tyr-Arg-NH2)
Relative Binding Index (RBI): 15 a.u.

C[C@H](NC(=O)[C@H](Cc1ccccc1)NS(=O)(=O)c1cccc2c(N(C)C)cccc12)C(=O)N[C@@H](CCCNC(=N)N)C(N)=O [Dansyl-FAR-amide] (Dansyl-Phe-Ala-Arg-NH2)
Relative Binding Index (RBI): −40 a.u.

CN(C)c1cccc2c(S(=O)(=O)N[C@@H](Cc3ccccc3)C(=O)N[C@@H](CC(=O)O)C(=O)N[C@@H](CCCNC(=N)N)C(N)=O)cccc12 [Dansyl-FDR-amide] (Dansyl-Phe-Asp-Arg-NH2)
Relative Binding Index (RBI): −9 a.u.

CN(C)c1cccc2c(S(=O)(=O)N[C@@H](Cc3ccccc3)C(=O)N[C@@H](CCC(=O)O)C(=O)N[C@@H](CCCNC(=N)N)C(N)=O)cccc12 [Dansyl-FER-amide] (Dansyl-Phe-Glu-Arg-NH2)
Relative Binding Index (RBI): 9 a.u.

CN(C)c1cccc2c(S(=O)(=O)N[C@@H](Cc3ccccc3)C(=O)N[C@@H](Cc3ccccc3)C(=O)N[C@@H](CCCNC(=N)N)C(N)=O)cccc12 [Dansyl-FFR-amide] (Dansyl-Phe-Phe-Arg-NH2)
Relative Binding Index (RBI): 8 a.u.

Reference: patent US6960574B2, “Antagonists of RF-amide neuropeptides” (University of Florida, priority 2002, dated 2005)
